From patent US20250302839A1 (D&D Biopharmaceuticals, Inc., priority 2024, published 2025)

Tests used:
human donor cornea [1] = assay: Penetration of riboflavin into human donor cornea, evaluated by fluorescence microscopy; type: in vitro ADME
human donor cornea [2] = assay: Pre- and post-treatment evaluation of corneal integrity (epithelium, stroma, endothelium; specular microscopy); conditions: 10 mg/ml glutaric anhydride in 0.3M sodium phosphate buffer (pH 8.5), 60 seconds
Experimental: The agent used in this example was glutaric anhydride (GA). Paired human donor corneas were evaluated prior to treatment and immediately after treatment for intact epithelium, stroma, and endothelium. Riboflavin fluorescence for the GA treatment and the non-GA treatment control were compared. The test human cornea sample was labeled 21-095656 OD, and the control human cornea sample was labeled 21-095656 OS.
One pair human corneas were recovered by in situ removal by a certified eyebank technician and placed in LIFE4° C. and stored in Bausch & Lomb 20 ml viewing chambers, and stored at 2-8° C. Corneas were shipped on wet ice overnight to the treatment facility. Upon arrival, the corneas were warmed for 2±2 hours at 35° C. and evaluated for corneal integrity. […] At the time of the study, corneas were warmed for 2±2 hours at 35° C., and evaluated for corneal integrity.
The control and treated cornea samples were placed in a petri dish with the epithelial side up in a laminar flow hood with enough Life4° C. corneal preservation medium to fill the endothelial side of the human cornea with medium. […] Each sample was analyzed before treatment (FIGS. 1A-1C).
A single examiner performed all measurements. Corneal endothelium was evaluated utilizing a Konan Eyebank KeratoAnalyzer. […] Number of cells analyzed. • 8. […]

SMILES	disruption of corneal cell junctures permitting riboflavin diffusion (human donor cornea [1]; 10 mg/ml glutaric anhydride in 0.3M sodium phosphate buffer (pH 8.5), 1.0 ml for 60 seconds, continuous drops)	effect on corneal epithelium, stroma and endothelium post-treatment (human donor cornea [2])	time until riboflavin fluorescence was exhibited (human donor cornea [1]; test cornea 21-095656 OD, after 10 mg/ml buffered glutaric anhydride solution for 60 seconds, riboflavin 1.46 mg/ml in PBS, 2 x 0.5 mL, intact epithelium)
O=C1CCCC(=O)O1 [glutaric anhydride]	disrupt cell junctures to permit diffusion of riboflavin through the epithelium and deep into the corneal stroma	did not adversely affect the corneal epithelium, stroma or endothelium	
Cc1cc2nc3c(=O)[nH]c(=O)nc-3n(C[C@H](O)[C@H](O)[C@H](O)CO)c2cc1C [riboflavin, reference compound]			≤ 2 min
